Data: ChEMBL document CHEMBL1151658, “Degradation of Lycorine by Pseudomonas Species Strain ITM 311” (1985)
Activity calls are given as the source filed them. The rule behind the calls is not given here.

tested on: Pectobacterium carotovorum; test: Antimicrobial activity against Erwinia carotovora subsp. carotovora NCPPB ITM 180 after 48 to 72 hrs by paper disk method; format: functional, organism-based; conditions: not given

SMILES	Activity
[O-]c1cc2c3c(c1)c1cc4c(cc1c[n+]3CC2)OCO4 [UNGEREMINE]	Active
[Cl-].c1cc2c3c(c1)c1cc4c(cc1c[n+]3CC2)OCO4 [ANHYDROLYCORINIUM CHLORIDE]	Active

tested on: Priestia megaterium; test: Antimicrobial activity against Bacillus megaterium ITM 80 after 48 to 72 hrs by paper disk method; format: functional, organism-based; conditions: not given

SMILES	Activity
[O-]c1cc2c3c(c1)c1cc4c(cc1c[n+]3CC2)OCO4 [UNGEREMINE]	Active
[Cl-].c1cc2c3c(c1)c1cc4c(cc1c[n+]3CC2)OCO4 [ANHYDROLYCORINIUM CHLORIDE]	Active

tested on: Xanthomonas euvesicatoria; test: Antimicrobial activity against Xanthomonas campestris pv. vesicatoria NCPPB 1616 after 48 to 72 hrs by paper disk method; format: functional, organism-based; conditions: not given

SMILES	Activity
[O-]c1cc2c3c(c1)c1cc4c(cc1c[n+]3CC2)OCO4 [UNGEREMINE]	Active
[Cl-].c1cc2c3c(c1)c1cc4c(cc1c[n+]3CC2)OCO4 [ANHYDROLYCORINIUM CHLORIDE]	Active

tested on: Pseudomonas cichorii; test: Antimicrobial activity against Pseudomonas cichorii NCPPB 2379 after 48 to 72 hrs by paper disk method; format: functional, organism-based; conditions: not given

SMILES	Activity
[O-]c1cc2c3c(c1)c1cc4c(cc1c[n+]3CC2)OCO4 [UNGEREMINE]	Active
[Cl-].c1cc2c3c(c1)c1cc4c(cc1c[n+]3CC2)OCO4 [ANHYDROLYCORINIUM CHLORIDE]	Active

tested on: Rhodococcus fascians; test: Antimicrobial activity against Corynebacterium fascians NCPPB 2551 at 0.01 molarity/paper disk; format: functional, Rhodococcoides fascians; conditions: not given

SMILES	inhibition zone (IZ) [mm]
[O-]c1cc2c3c(c1)c1cc4c(cc1c[n+]3CC2)OCO4 [UNGEREMINE]	15
O=c1c2cc3c(cc2c2cccc4c2n1CC4)OCO3	25
c1cc2c3c(c1)-c1cc4c(cc1CN3CC2)OCO4 [ANHYDROLYCORINE]	25
Oc1ccc2c3c1c1cc4c(cc1c[n+]3CC2)OCO4.[Cl-]	10
Oc1cc2c3c(c1)c1cc4c(cc1c[n+]3CC2)OCO4.[Cl-]	0
[Cl-].c1cc2c3c(c1)c1cc4c(cc1c[n+]3CC2)OCO4 [ANHYDROLYCORINIUM CHLORIDE]	30
O=C1N[C@@H]2C(=C[C@H](O)[C@@H](O)[C@H]2O)c2cc3c(c(O)c21)OCO3 [NARCICLASINE]	0
O[C@H]1[C@H]2c3cc4c(cc3CN3CCC(=C[C@@H]1O)[C@H]23)OCO4 [LYCORINE]	0

tested on: Pseudomonas syringae; test: Antimicrobial activity against Pseudomonas syringae pv. tomato NCPPB 2563 after 48 to 72 hrs by paper disk method; format: functional, organism-based; conditions: not given

SMILES	Activity
[O-]c1cc2c3c(c1)c1cc4c(cc1c[n+]3CC2)OCO4 [UNGEREMINE]	Active
[Cl-].c1cc2c3c(c1)c1cc4c(cc1c[n+]3CC2)OCO4 [ANHYDROLYCORINIUM CHLORIDE]	Active

tested on: Agrobacterium tumefaciens; test: Antimicrobial activity against Agrobacterium tumefaciens ITM 71 after 48 to 72 hrs by paper disk method; format: functional, organism-based; conditions: not given

SMILES	Activity
[O-]c1cc2c3c(c1)c1cc4c(cc1c[n+]3CC2)OCO4 [UNGEREMINE]	Active
[Cl-].c1cc2c3c(c1)c1cc4c(cc1c[n+]3CC2)OCO4 [ANHYDROLYCORINIUM CHLORIDE]	Active

tested on: Rhodococcus fascians; test: Antimicrobial activity against Corynebacterium fascians NCPPB 2551 at 0.0005 molarity/paper disk; format: functional, Rhodococcoides fascians; conditions: not given

SMILES	inhibition zone (IZ) [mm]
[O-]c1cc2c3c(c1)c1cc4c(cc1c[n+]3CC2)OCO4 [UNGEREMINE]	0
O=c1c2cc3c(cc2c2cccc4c2n1CC4)OCO3	9
c1cc2c3c(c1)-c1cc4c(cc1CN3CC2)OCO4 [ANHYDROLYCORINE]	15
Oc1ccc2c3c1c1cc4c(cc1c[n+]3CC2)OCO4.[Cl-]	0
Oc1cc2c3c(c1)c1cc4c(cc1c[n+]3CC2)OCO4.[Cl-]	0
[Cl-].c1cc2c3c(c1)c1cc4c(cc1c[n+]3CC2)OCO4 [ANHYDROLYCORINIUM CHLORIDE]	16
O=C1N[C@@H]2C(=C[C@H](O)[C@@H](O)[C@H]2O)c2cc3c(c(O)c21)OCO3 [NARCICLASINE]	0
O[C@H]1[C@H]2c3cc4c(cc3CN3CCC(=C[C@@H]1O)[C@H]23)OCO4 [LYCORINE]	0

tested on: Curtobacterium flaccumfaciens; test: Antimicrobial activity against Corynebacterium flaccumfaciens NCPPB 559 after 48 to 72 hrs by paper disk method; format: functional, organism-based; conditions: not given

SMILES	Activity
[O-]c1cc2c3c(c1)c1cc4c(cc1c[n+]3CC2)OCO4 [UNGEREMINE]	Active
[Cl-].c1cc2c3c(c1)c1cc4c(cc1c[n+]3CC2)OCO4 [ANHYDROLYCORINIUM CHLORIDE]	Active

tested on: Pseudomonas syringae; test: Antimicrobial activity against Pseudomonas syringae pv. tabaci NCPPB 2730 after 48 to 72 hrs by paper disk method; format: functional, organism-based; conditions: Pseudomonas amygdali pv. tabaci

SMILES	Activity
[O-]c1cc2c3c(c1)c1cc4c(cc1c[n+]3CC2)OCO4 [UNGEREMINE]	Active
[Cl-].c1cc2c3c(c1)c1cc4c(cc1c[n+]3CC2)OCO4 [ANHYDROLYCORINIUM CHLORIDE]	Active

tested on: Pseudomonas syringae; test: Antimicrobial activity against Pseudomonas syringae pv. syringae NCPPB ITM24 after 48 to 72 hrs by paper disk method; format: functional, organism-based; conditions: not given

SMILES	Activity
[O-]c1cc2c3c(c1)c1cc4c(cc1c[n+]3CC2)OCO4 [UNGEREMINE]	Active
[Cl-].c1cc2c3c(c1)c1cc4c(cc1c[n+]3CC2)OCO4 [ANHYDROLYCORINIUM CHLORIDE]	Active

tested on: Pseudomonas savastanoi; test: Antimicrobial activity against Pseudomonas savastanoi ITM 519 after 48 to 72 hrs by paper disk method; format: functional, organism-based; conditions: not given

SMILES	Activity
[O-]c1cc2c3c(c1)c1cc4c(cc1c[n+]3CC2)OCO4 [UNGEREMINE]	Active
[Cl-].c1cc2c3c(c1)c1cc4c(cc1c[n+]3CC2)OCO4 [ANHYDROLYCORINIUM CHLORIDE]	Active

tested on: Pseudomonas coronafaciens; test: Antimicrobial activity against Pseudomonas coronafaciens NCPPB 2481 after 48 to 72 hrs by paper disk method; format: functional, organism-based; conditions: not given

SMILES	Activity
[O-]c1cc2c3c(c1)c1cc4c(cc1c[n+]3CC2)OCO4 [UNGEREMINE]	Active
[Cl-].c1cc2c3c(c1)c1cc4c(cc1c[n+]3CC2)OCO4 [ANHYDROLYCORINIUM CHLORIDE]	Active

tested on: Pseudomonas syringae; test: Antimicrobial activity against Pseudomonas syringae pv. maculicola NCPPB 1777 after 48 to 72 hrs by paper disk method; format: functional, organism-based; conditions: not given

SMILES	Activity
[O-]c1cc2c3c(c1)c1cc4c(cc1c[n+]3CC2)OCO4 [UNGEREMINE]	Active
[Cl-].c1cc2c3c(c1)c1cc4c(cc1c[n+]3CC2)OCO4 [ANHYDROLYCORINIUM CHLORIDE]	Active

tested on: Rhodococcus fascians; test: Antimicrobial activity against Corynebacterium fascians NCPPB 2551 at 0.001 molarity/paper disk; format: functional, Rhodococcoides fascians; conditions: not given

SMILES	inhibition zone (IZ) [mm]
[O-]c1cc2c3c(c1)c1cc4c(cc1c[n+]3CC2)OCO4 [UNGEREMINE]	14
O=c1c2cc3c(cc2c2cccc4c2n1CC4)OCO3	12
c1cc2c3c(c1)-c1cc4c(cc1CN3CC2)OCO4 [ANHYDROLYCORINE]	25
Oc1ccc2c3c1c1cc4c(cc1c[n+]3CC2)OCO4.[Cl-]	7
Oc1cc2c3c(c1)c1cc4c(cc1c[n+]3CC2)OCO4.[Cl-]	0
[Cl-].c1cc2c3c(c1)c1cc4c(cc1c[n+]3CC2)OCO4 [ANHYDROLYCORINIUM CHLORIDE]	24
O=C1N[C@@H]2C(=C[C@H](O)[C@@H](O)[C@H]2O)c2cc3c(c(O)c21)OCO3 [NARCICLASINE]	0
O[C@H]1[C@H]2c3cc4c(cc3CN3CCC(=C[C@@H]1O)[C@H]23)OCO4 [LYCORINE]	0

tested on: Rhodococcus fascians; test: Antimicrobial activity against Corynebacterium fascians NCPPB 2551 at 0.0001 molarity/paper disk; format: functional, Rhodococcoides fascians; conditions: not given

SMILES	inhibition zone (IZ) [mm]
[O-]c1cc2c3c(c1)c1cc4c(cc1c[n+]3CC2)OCO4 [UNGEREMINE]	0
O=c1c2cc3c(cc2c2cccc4c2n1CC4)OCO3	0
c1cc2c3c(c1)-c1cc4c(cc1CN3CC2)OCO4 [ANHYDROLYCORINE]	0
Oc1ccc2c3c1c1cc4c(cc1c[n+]3CC2)OCO4.[Cl-]	0
Oc1cc2c3c(c1)c1cc4c(cc1c[n+]3CC2)OCO4.[Cl-]	0
[Cl-].c1cc2c3c(c1)c1cc4c(cc1c[n+]3CC2)OCO4 [ANHYDROLYCORINIUM CHLORIDE]	10
O=C1N[C@@H]2C(=C[C@H](O)[C@@H](O)[C@H]2O)c2cc3c(c(O)c21)OCO3 [NARCICLASINE]	0
O[C@H]1[C@H]2c3cc4c(cc3CN3CCC(=C[C@@H]1O)[C@H]23)OCO4 [LYCORINE]	0

tested on: Pseudomonas; test: Antimicrobial activity against Pseudomonas ITM 311 after 48 to 72 hrs by paper disk method; format: functional, organism-based; conditions: not given

SMILES	Activity
[O-]c1cc2c3c(c1)c1cc4c(cc1c[n+]3CC2)OCO4 [UNGEREMINE]	inactive
[Cl-].c1cc2c3c(c1)c1cc4c(cc1c[n+]3CC2)OCO4 [ANHYDROLYCORINIUM CHLORIDE]	inactive
